Test results taken from US12385839B2, “Use of protein in predicting drug properties” (priority 2021, dated 2025).

Assays:
[1] = molecular target: T1, human serum albumin (HSA) (Homo sapiens, UniProt P02768); assay: Fluorescence emission spectrum (quenching) of HSA with carbamate pesticides; format: binding; details: for Ksv (37°) / ΔG(37°) / Binding distance/r / Number of binding sites/n: modelling table; for Kq / Ksv / n (number of binding sites) / Kd: pH 7.4; for R (binding distance): Förster energy transfer; for fluorescence of HSA quenched by pesticide: titration of pesticide; for Kd: Ka (binding constant); for ΔH^0 / ΔS^0: Van't Hoff, 296-310 K
Method: the mixed solution to be tested was preheated at […] for 3 minutes, and the emission spectrum of HSA with carbamate pesticides was measured at 300-500 nm . The excitation wavelength was set at 280 nm , and the slit width for both excitation and emission was 15 nm; the HSA concentration was kept constant at 5×10^−7 M, and the pesticide concentration was (0-105)×10^−7 M.
The internal filtering effect of fluorescence signal was corrected according to the following formula: Fcor=Fobsexp[(Aex+Aem)/2] (1);
in this formula, Fcor and Fobs represent corrected fluorescence signal and observed fluorescence signal, respectively, and Aex and Aem represent absorbance of the mixed solution to be tested at excitation wavelength and emission wavelengths, respectively; the quenching constant, number of binding sites, binding constant, free energy and binding distance of different drugs were obtained by fluorescence emission spectra, and a BP neural network model was obtained. Specifically, they were obtained as follows:
There is a linear relationship between F0/F and [Q] to distinguish whether it is static quenching or dynamic quenching. The fluorescence quenching data are analyzed by Stern-Volmer equation to clarify the quenching mechanism: F0/F=1+KSV[Q]=1+Kqτ0[Q] (2);
in the formula, F0 and F are fluorescence signals […] quencher, respectively. Ksv is Stern-Volmer quenching constant; Kq is a quenching rate constant of biomolecules; τ0 is the average lifetime of biomolecules without quencher (about 10^−8 s); [Q] is the concentration of quencher.
The maximum dynamic quenching rate constant of all kinds of quenchers on polymers was 2.0×10^10 L·mol^−1·s^−1. Static quenching and dynamic quenching could be judged according to this value. If K^q was greater than 2.0×10^10 L·mol^−1·s^−1, it belonged to static quenching. Otherwise, it belonged to dynamic quenching.
In this part, the binding sites and binding constants between carbamate pesticides and HSA were calculated. The following formula was used to calculate the number of binding sites (n) and the binding constant (Ka) of carbamate pesticides and HSA: log[(F0−F)/F]=log Ka+nlog[Q] (3);
The interactions between biological molecules and drug molecules were weak intermolecular interactions, including hydrogen bonds, van der Waals forces, electrostatic forces and hydrophobic interactions. By using Van't Hoff equation, the thermodynamic constants of drug-protein interaction were obtained, and the main types of drug-protein interaction were judged according to the changes of binding constants under different conditions. LnK=−ΔH^0/RT+ΔS^0/R (4); ΔG^0=ΔH^0−TΔS^0 (5);
There is a relationship among energy transfer efficiency E, distance r between energy donor and energy receptor and energy transfer distance R0. E=1−F/F0=R0^6/(R0^6+r^6) (6);
E represents the transfer efficiency between donor and receptor, r is the average distance between donor and receptor, and R0 is the critical distance when the transfer efficiency is 50%. R0^6=8.79×10^−K^2N^−4φJ (7)
K^2 is the orientation related to the geometry of donor and receptor of dipole. For random orientation in fluid, K^2=2/3; N is the average refractive index of the medium in the wavelength range with obvious spectral overlap, and the refractive index of water and organic matter is 1.336; φ is the quantum yield of donor, and the quantum yield of tryptophan in HSA is about 0.118; J represents the influence of spectral overlap between the emission spectrum of the donor and the absorption spectrum of the receptor, and can be calculated by the following formula: j=ΣF(λ)ϵ(λ)λ^4Δλ/ΣF(λ) Δλ (8);
F(λ) is the corrected fluorescence signal of the donor in the wavelength range from λ to (λ+Δλ), while ϵ(λ) is the extinction coefficient of the receptor at λ.

[2] = molecular target: T1, human serum albumin (HSA); assay: Circular dichroism spectrum, secondary structure (α-helix content) of HSA; details: HSA 2×10^−6 M
Method: the mixed solution to be tested was preheated at […] for 2-5 minutes, and the CD spectrum of HSA was recorded in the wavelength range of 200-500 nm . The concentration of HSA was kept at 2×10^−6 M, and the pesticide was (0-20)×10^−6 m. Firstly, HSA was measured, and then the ratio of HSA to pesticides needed to be determined specifically, which was preliminarily determined according to the ratio of 1:1, 1:2 and 1:3.
According to the following equation, the result of CD spectrum was usually expressed as the mean residue ellipticity (MRE), and the unit was deg·cm^2·dmol^−1. MRE=ObservedCD(mdeg)/(10Cpnl) (9);
in which Cp is the molar concentration of protein, n is the number (585) of amino acid residues, and 1 is the path length (1 mm). The α helicity of free and bound HSA is calculated from MRE values using the following formula: α−Helix(%)=[(−MRE208−4000)×100]/(33000-4000) (10)
in which the MRE208 is the MRE value observed at 208 nm , 4000 is the MRE value of random coil conformation at 208 nm , and […] is the MRE value of pure α helix at 208 nm .

[3] = cited from earlier work; for LD50: modelling table; for Toxicity: toxicity grade by LD50, trailing figure = number of pesticides in group

T1 sequence (P02768 25-609): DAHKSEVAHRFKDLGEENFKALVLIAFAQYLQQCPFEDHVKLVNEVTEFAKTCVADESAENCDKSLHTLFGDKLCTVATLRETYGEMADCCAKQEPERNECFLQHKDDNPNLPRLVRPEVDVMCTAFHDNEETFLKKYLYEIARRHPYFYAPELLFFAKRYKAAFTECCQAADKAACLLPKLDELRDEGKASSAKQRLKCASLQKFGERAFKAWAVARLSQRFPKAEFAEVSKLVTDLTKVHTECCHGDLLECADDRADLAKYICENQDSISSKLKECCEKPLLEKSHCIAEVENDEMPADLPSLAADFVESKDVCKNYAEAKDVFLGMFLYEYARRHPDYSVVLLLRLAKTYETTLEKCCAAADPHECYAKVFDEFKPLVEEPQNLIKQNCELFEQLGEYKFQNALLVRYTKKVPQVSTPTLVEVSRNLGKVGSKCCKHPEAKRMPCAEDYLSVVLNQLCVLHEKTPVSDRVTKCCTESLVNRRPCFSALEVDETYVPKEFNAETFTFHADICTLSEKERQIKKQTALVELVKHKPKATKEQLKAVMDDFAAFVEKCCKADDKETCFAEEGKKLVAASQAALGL

CNC(=O)Oc1cccc2c1OC(C)(C)C2 [Carbofuran, carbofuran]
Ksv (37°) [1]: 87696.31575
ΔG(37°) [1]: −25.15
ΔG^0 ([1]; 296 K): -5.0459 kcal/mol
Kq ([1]; 296 K): 5.563 ± 0.123 10^12 M^−1s^−1
Ksv ([1]; 296 K): 5.563 ± 0.123 10^4 M^−1
n (number of binding sites) ([1]; 296 K): 0.797 ± 0.002
ΔG^0 ([1]; 303 K): -5.5287 kcal/mol
Kq ([1]; 303 K): 7.239 ± 0.082 10^12 M^−1s^−1
Ksv ([1]; 303 K): 7.239 ± 0.082 10^4 M^−1
n (number of binding sites) ([1]; 303 K): 0.822 ± 0.002
ΔG^0 ([1]; 310 K): -6.0117 kcal/mol
R (binding distance) ([1]; 310 K): 1.938 nm
Kq ([1]; 310 K): 8.770 ± 0.088 10^12 M^−1s^−1
Ksv ([1]; 310 K): 8.770 ± 0.088 10^4 M^−1
n (number of binding sites) ([1]; 310 K): 0.862 ± 0.002
fluorescence of HSA quenched by pesticide ([1]; 310 K): quenched
Kd ([1]; 296 K): 185 µM
Kd ([1]; 303 K): 107 µM
Kd ([1]; 310 K): 56.7 µM
ΔH^0 [1]: 15.374 kcal/mol
ΔS^0 [1]: 288.639 J · mol^−1 · K^−1
Binding distance/r [1]: 1.938
Number of binding sites/n [1]: 0.8616
α-helix contents ([2]; 5:1 (Pesticide:HSA)): 51.483%
α-helix contents ([2]; 10:1 (Pesticide:HSA)): 48.304%
LD50 [3]: 5 mg/kg
Toxicity [3]: Highly

CCSCc1ccccc1OC(=O)NC [Ethiofencarb, ethiofencarb]
Ksv (37°) [1]: 41346.56830
ΔG(37°) [1]: −17.7
ΔG^0 ([1]; 296 K): -3.4355 kcal/mol
Kq ([1]; 296 K): 2.562 ± 0.137 10^12 M^−1s^−1
Ksv ([1]; 296 K): 2.562 ± 0.137 10^4 M^−1
n (number of binding sites) ([1]; 296 K): 0.613 ± 0.003
ΔG^0 ([1]; 303 K): -3.8329 kcal/mol
Kq ([1]; 303 K): 3.301 ± 0.074 10^12 M^−1s^−1
Ksv ([1]; 303 K): 3.301 ± 0.074 10^4 M^−1
n (number of binding sites) ([1]; 303 K): 0.645 ± 0.009
ΔG^0 ([1]; 310 K): -4.2302 kcal/mol
R (binding distance) ([1]; 310 K): 2.363 nm
Kq ([1]; 310 K): 4.135 ± 0.166 10^12 M^−1s^−1
Ksv ([1]; 310 K): 4.135 ± 0.166 10^4 M^−1
n (number of binding sites) ([1]; 310 K): 0.674 ± 0.002
fluorescence of HSA quenched by pesticide ([1]; 310 K): quenched
Kd ([1]; 296 K): 2920 µM
Kd ([1]; 303 K): 1710 µM
Kd ([1]; 310 K): 1050 µM
ΔH^0 [1]: 13.365 kcal/mol
ΔS^0 [1]: 237.483 J · mol^−1 · K^−1
Binding distance/r [1]: 2.363
Number of binding sites/n [1]: 0.6742
α-helix contents ([2]; 5:1 (Pesticide:HSA)): 49.087%
α-helix contents ([2]; 10:1 (Pesticide:HSA)): 48.340%
LD50 [3]: 200 mg/kg
Toxicity [3]: Moderately
